Key:
Format in all cases: in vivo
[1] = system: Salsola kali (Russian thistle); experiment: Greenhouse postemergence herbicidal effect on SASKR
Excerpt: (§1) Greenhouse Trial Methodology—Evaluation of Postemergence Herbicidal Effect
(§2) Seeds of the desired test plant species were planted in a 90:10% v/v (volume/volume) mixture of PRO-MIX® BX (Premier Tech Horticulture, Quakertown, Pa., USA) and PROFILE® GREENS GRADE™ (Profile Products LLC, Buffalo Grove, Ill., USA) planting mixture, which typically has a pH of 5.2 to 6.2 and an organic matter content of at least 50 percent, in plastic pots with a surface area of 103.2 square centimeters (cm^2). In some aspects or embodiments, to help ensure good germination and healthy plants, a fungicide treatment and/or other chemical or physical treatment was applied. The plants were grown for 7-36 days (d) in a greenhouse with an approximate 14-hour (h) photoperiod which was maintained at about 23° C. during the day and 22° C. during the night. Nutrients and water were added on a regular basis and supplemental lighting was provided with overhead metal halide 1000-Watt lamps as necessary. The plants were employed for testing when they reached the second or third true leaf stage.
(§3) Emulsifiable concentrates of each of each pyridine carboxylate herbicide (Compound A or Compound B) were prepared at 100 grams acid equivalent per liter (g ae/L). The emulsifiable concentrates also included a safener, cloquintocet mexyl, at 120 grams active ingredient per liter (g ai/L). An aliquot of each emulsifiable concentrate was placed in a 25 mL glass vial and diluted with an aqueous mixture of 1.25% (v/v) ACTIROB® B esterified rapeseed oil (Bayer Crop Science, Research Triangle Park, N.C., USA) or MSO® Concentrate with LECI-TECH® methylated soybean oil (Loveland Products, Loveland, Colo., USA) to obtain concentrated stock solutions at the highest application rate for each herbicide, based upon a 12 milliliter (mL) application volume at a rate of 187 liters per hectare (L/ha). The concentrated stock solutions were further diluted with an aqueous mixture of 1.25% v/v ACTIROB® B or MSO® Concentrate with LECI-TECH® to obtain stock solutions at reduced application rates for each herbicide. Spray solutions of the herbicide combinations (Compound A or Compound B plus PROTOX inhibitor herbicide) were prepared by adding weighed amounts or aliquots of the PROTOX inhibitor herbicides to the stock solutions of Compound A or Compound B to form 12-mL spray solutions in two-way combinations.
(§4) The spray solutions were applied to the plant material with an overhead Mandel track sprayer equipped with 8002E nozzles calibrated to deliver 187 L/ha over an application area of 0.503 square meters (m^2) at a spray height of 18 inches (43 centimeters (cm)) above the average plant canopy. Control plants were sprayed in the same manner with the solvent blank. All pyridine carboxylate herbicide (component a) application rates are given as “g ae/ha” and all PROTOX inhibitor herbicide (component b) application rates are given as “g ai/ha.”
(§5) The treated plants and control plants were placed in a greenhouse as described above and watered by sub-irrigation to prevent wash-off of the test compounds. After 20-22 d, the condition of the test plants as compared with that of the control plants was determined visually and scored on a scale of 0 to 100 percent where 0 corresponds to no injury and 100 corresponds to complete kill.

[2] = system: Rumex obtusifolius (broad-leaf dock); experiment: Greenhouse postemergence herbicidal effect on RUMOB
Excerpt: as §1, §2, §3, §4, §5

[3] = system: Papaver rhoeas (common poppy); experiment: Greenhouse postemergence herbicidal effect on PAPRH
Excerpt: as §1, §2
as §3, with “combinations. […]” for “combinations.”
as §5

[4] = system: Viola tricolor (wild pansy); experiment: Greenhouse postemergence herbicidal effect on VIOTR
Excerpt: as §1, §2, §3, §4, §5

[5] = system: Capsella bursa-pastoris (shepherd's purse); experiment: Greenhouse postemergence herbicidal effect on CAPBP
Excerpt: as §1, §2
as §3, with “combinations. […]” for “combinations.”
as §5

[6] = system: Polygonum convolvulus (wild buckwheat); experiment: Greenhouse postemergence herbicidal effect on POLCO
Excerpt: as §1, §2, §3, §4, §5

[7] = system: Kochia scoparia (kochia); experiment: Greenhouse postemergence herbicidal effect on KCHSC
Excerpt: as §1, §2, §3, §4, §5

[8] = system: Hordeum vulgare (spring barley); experiment: Greenhouse postemergence phytotoxicity on crop HORVS
Excerpt: as §1, §2, §3, §4, §5

[9] = system: Viola arvensis (field violet); experiment: Greenhouse postemergence herbicidal effect on VIOAR
Excerpt: as §1, §2
as §3, with “combinations. […]” for “combinations.”
as §5

[10] = system: Amaranthus retroflexus (pigweed); experiment: Greenhouse postemergence herbicidal effect on AMARE
Excerpt: as §1, §2, §3, §4, §5

[11] = system: Matricaria inodora (scentless chamomile); experiment: Greenhouse postemergence herbicidal effect on MATIN
Excerpt: as §1, §2
as §3, with “combinations. […]” for “combinations.”
as §5

[12] = system: Digitaria sanguinalis (large crabgrass); experiment: Greenhouse postemergence herbicidal effect on DIGSA
Excerpt: as §1, §2
Emulsifiable concentrates of each of each pyridine carboxylate herbicide (Compound A or Compound B) were prepared at 100 grams acid equivalent per liter (g ae/L). The emulsifiable concentrates also included a safener, cloquintocet mexyl, at 120 grams active ingredient per liter (g ai/L). […]
as §5

[13] = system: Cyanus segetum (cornflower); experiment: Greenhouse postemergence herbicidal effect on CENCY
Excerpt: as §1, §2
as §3, with “combinations. […]” for “combinations.”
as §5

[14] = system: Anthemis arvensis (corn chamomile); experiment: Greenhouse postemergence herbicidal effect on ANTAR
Excerpt: as §1, §2
as §3, with “combinations. […]” for “combinations.”
as §5

[15] = Compound A 7.5, Carfentrazone-ethyl 0 g/ha
[16] = Compound A 7.5, Oxyfluorfen 0 g/ha
[17] = Compound A 7.5, Pyraclonil 0 g/ha
[18] = Compound A 7.5, Pyraflufen-ethyl 0 g/ha
[19] = Compound A 10, Carfentrazone-ethyl 0 g/ha
[20] = Compound A 10, Oxyfluorfen 0 g/ha
[21] = Compound A 10, Pyraclonil 0 g/ha
[22] = Compound A 10, Pyraflufen-ethyl 0 g/ha
[23] = Compound A 15, Oxyfluorfen 0 g/ha
[24] = Compound A 7.5, Saflufenacil 0 g/ha
[25] = Compound A 10, Saflufenacil 0 g/ha

SMILES: N#CCOC(=O)c1nc(-c2ccc3cc[nH]c3c2F)c(F)c(N)c1Cl [Compound A, cyanomethyl 4-amino-3-chloro-5-fluoro-6-(7-fluoro-1H-indol-6-yl)pyridine-2-carboxylate]
- % visual injury, Obs [1, 15]: 45%
- % visual injury, Obs [1, 16]: 50%
- % visual injury, Obs [1, 17]: 45%
- % visual injury, Obs [1, 18]: 60%
- % visual injury, Obs [1, 19]: 60%
- % visual injury, Obs [1, 20]: 60%
- % visual injury, Obs [1, 21]: 60%
- % visual injury, Obs [1, 22]: 63%
- % visual injury, Obs [1, 23]: 63%
- % visual injury, Obs ([2]; Compound A 7.5, Bifenox 0 g/ha): 13%
- % visual injury, Obs [2, 24]: 20%
- % visual injury, Obs ([2]; Compound A 10, Bifenox 0 g/ha): 8%
- % visual injury, Obs [2, 25]: 13%
- % visual injury, Obs [3, 16]: 100%
- % visual injury, Obs [3, 20]: 99%
- % visual injury, Obs [3, 23]: 100%
- % visual injury, Obs ([4]; Compound A 7.5, Bifenox 0 g/ha): 45%
- % visual injury, Obs [4, 16]: 13%
- % visual injury, Obs ([4]; Compound A 10, Bifenox 0 g/ha): 15%
- % visual injury, Obs [4, 20]: 15%
- % visual injury, Obs [4, 23]: 15%
- % visual injury, Obs [5, 16]: 45%
- % visual injury, Obs [5, 20]: 55%
- % visual injury, Obs [5, 23]: 55%
- % visual injury, Obs [6, 15]: 70%
- % visual injury, Obs [6, 16]: 65%
- % visual injury, Obs [6, 17]: 70%
- % visual injury, Obs [6, 18]: 30%
- % visual injury, Obs [6, 19]: 78%
- % visual injury, Obs [6, 20]: 78%
- % visual injury, Obs [6, 21]: 78%
- % visual injury, Obs [6, 22]: 43%
- % visual injury, Obs [6, 23]: 85%
- % visual injury, Obs ([7]; Compound A 7.5, Bifenox 0 g/ha): 63%
- % visual injury, Obs [7, 15]: 50%
- % visual injury, Obs [7, 16]: 63%
- % visual injury, Obs [7, 17]: 50%
- % visual injury, Obs [7, 18]: 70%
- % visual injury, Obs ([7]; Compound A 10, Bifenox 0 g/ha): 70%
- % visual injury, Obs [7, 19]: 58%
- % visual injury, Obs [7, 20]: 65%
- % visual injury, Obs [7, 21]: 58%
- % visual injury, Obs [7, 22]: 70%
- % visual injury, Obs [7, 23]: 63%
- % visual injury, Obs [8, 15]: 8%
- % visual injury, Obs [8, 16]: 0%
- % visual injury, Obs [8, 17]: 8%
- % visual injury, Obs [8, 18]: 0%
- % visual injury, Obs [8, 19]: 0%
- % visual injury, Obs [8, 20]: 0%
- % visual injury, Obs [8, 21]: 0%
- % visual injury, Obs [8, 22]: 0%
- % visual injury, Obs [8, 23]: 0%
- % visual injury, Obs [9, 16]: 10%
- % visual injury, Obs [9, 20]: 13%
- % visual injury, Obs [9, 23]: 10%
- % visual injury, Obs [10, 18]: 90%
- % visual injury, Obs [10, 24]: 88%
- % visual injury, Obs [10, 22]: 85%
- % visual injury, Obs [10, 25]: 88%
- % visual injury, Obs [11, 16]: 55%
- % visual injury, Obs [11, 20]: 60%
- % visual injury, Obs [11, 23]: 83%
- % visual injury, Obs ([12]; Compound A 7.5, Bifenox 0 g/ha): 13%
- % visual injury, Obs ([12]; Compound A 10, Bifenox 0 g/ha): 25%
- % visual injury, Obs [13, 16]: 75%
- % visual injury, Obs [13, 20]: 78%
- % visual injury, Obs [13, 23]: 80%
- % visual injury, Obs [14, 16]: 68%
- % visual injury, Obs [14, 20]: 70%
- % visual injury, Obs [14, 23]: 88%
